Biological target: Protein cereblon/Peptidyl-prolyl cis-trans isomerase FKBP1A (Homo sapiens, UniProt P62942+Q96SW2)
Assay: Protac activity at CRBN/FKBP12 in human Jurkat cells
Format: cell-based

Sequence of Protein cereblon/Peptidyl-prolyl cis-trans isomerase FKBP1A (P62942 whole entry): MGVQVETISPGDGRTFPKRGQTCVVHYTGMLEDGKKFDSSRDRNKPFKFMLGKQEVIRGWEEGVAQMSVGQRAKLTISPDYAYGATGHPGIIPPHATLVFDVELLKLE
Sequence of Protein cereblon/Peptidyl-prolyl cis-trans isomerase FKBP1A (Q96SW2 whole entry): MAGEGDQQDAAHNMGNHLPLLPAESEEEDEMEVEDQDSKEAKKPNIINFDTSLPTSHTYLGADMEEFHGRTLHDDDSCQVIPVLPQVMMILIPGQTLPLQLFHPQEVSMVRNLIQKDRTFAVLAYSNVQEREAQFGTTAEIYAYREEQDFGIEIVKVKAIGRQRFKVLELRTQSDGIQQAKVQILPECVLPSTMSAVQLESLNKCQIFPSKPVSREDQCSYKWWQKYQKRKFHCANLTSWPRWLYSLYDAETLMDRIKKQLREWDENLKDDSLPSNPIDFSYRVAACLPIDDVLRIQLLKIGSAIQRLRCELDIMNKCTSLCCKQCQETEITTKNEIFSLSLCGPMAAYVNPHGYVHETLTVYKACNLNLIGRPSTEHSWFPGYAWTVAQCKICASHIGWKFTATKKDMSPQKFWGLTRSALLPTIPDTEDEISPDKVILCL

Structure (SMILES): COC1C(=O)[C@H](C)C[C@H](C)/C=C/C=C/C=C(\C)[C@@H](OC)C[C@@H]2CC[C@@H](C)[C@@](O)(O2)C(=O)C(=O)N2CCCC[C@H]2C(=O)O[C@H]([C@H](C)C[C@@H]2CC[C@@H](OCCOCc3cn(CCOCCOCCNc4cccc5c4C(=O)N(C4CCC(=O)NC4=O)C5=O)nn3)[C@H](OC)C2)CC(=O)[C@H](C)/C=C(\C)[C@H]1O (stereo partly specified)
- DC50: 0.3 nM

— ChEMBL document CHEMBL5241095, “Developments of CRBN-based PROTACs as potential therapeutic agents” (Eur J Med Chem, 2021)
